What is called EC50 is the midpoint of the concentration-response curve. The term IC50 denotes the concentration that gives 50% inhibition. Broadly, the half-life is how long it takes for the measured level to halve.

We go through 15 molecules from article PMC8979340 (RSC Advances, 2022).

Each structure is given as a SMILES string.

In data set [1] the target is T1, human TGR5 (Homo sapiens, UniProt Q8TDU6).
T1 sequence (Q8TDU6 1-330): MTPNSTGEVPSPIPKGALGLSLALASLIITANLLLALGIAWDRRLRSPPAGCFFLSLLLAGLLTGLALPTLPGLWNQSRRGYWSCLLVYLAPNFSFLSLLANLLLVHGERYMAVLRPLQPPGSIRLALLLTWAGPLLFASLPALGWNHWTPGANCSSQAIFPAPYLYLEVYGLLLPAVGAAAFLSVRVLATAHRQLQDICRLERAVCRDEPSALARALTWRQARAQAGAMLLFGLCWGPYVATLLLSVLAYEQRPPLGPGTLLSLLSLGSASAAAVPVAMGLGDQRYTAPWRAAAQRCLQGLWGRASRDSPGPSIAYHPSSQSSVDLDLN
Nature of the data set: cAMP HTRF TGR5 agonism assay in HEK293T cells expressing human TGR5. The class given is cell-based. The following applies: for TGR5 agonistic activity (in words): hTGR5, cAMP HTRF. A general note: Time-resolved FRET reads energy transfer from a long-lived donor to a nearby acceptor.

For data set [2], the target named is T2, mouse TGR5 (Mus musculus, UniProt Q80SS6).
T2 sequence (Q80SS6 1-329): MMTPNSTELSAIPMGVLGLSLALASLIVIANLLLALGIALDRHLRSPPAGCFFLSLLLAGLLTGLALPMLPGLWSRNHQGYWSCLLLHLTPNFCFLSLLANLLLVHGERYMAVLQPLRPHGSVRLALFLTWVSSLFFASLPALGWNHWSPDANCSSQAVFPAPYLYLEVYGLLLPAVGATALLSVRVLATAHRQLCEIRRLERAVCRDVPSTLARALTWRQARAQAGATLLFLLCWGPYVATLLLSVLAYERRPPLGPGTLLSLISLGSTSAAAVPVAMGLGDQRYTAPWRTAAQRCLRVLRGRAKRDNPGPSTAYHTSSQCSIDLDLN
Nature of the data set: cAMP HTRF TGR5 agonism assay in HEK293T cells expressing mouse TGR5. Format: cell-based.

The test system of data set [3] is A549 cells. Nature of the data set: CCK8 cytotoxicity assay in A549 cells. The following applies: Homo sapiens, A549, read-out: IC50 A549. Format: cell-based. On the technique in general: Formazan colour is commonly taken as a measure of viable cells.
The test system of data set [4] is HeLa cells. The data set can be described thus: CCK8 cytotoxicity assay in HeLa cells. Format: cell-based. The conditions noted are these: Homo sapiens, read-out: IC50 HeLa.
Data set [5] is described as follows: In vitro human plasma stability assay. Format: in vitro ADME.
The test system of data set [6] is NCI-H716 cells. The data set can be described thus: In vitro GLP-1 secretion assay. The class given is cell-based, human. The conditions noted are these: 4 μM, 2 h.
The subject of data set [7] is C57 BL/6 mice. Nature of the data set: In vivo GLP-1 secretion. The conditions noted are these: 50 mg kg−1 oral, blood 4 h later.

Consider `O=C(C1Cc2ccccc2CN1Cc1ccc(Cl)cc1)N1CCN(C2CC2)c2ccccc21` (stereo not shown) [18a, (2-(4-Chlorobenzyl)-1,2,3,4-tetrahydroisoquinolin-3-yl)(4-cyclopropyl-3,4-dihydroquinoxalin-1(2H)-yl)methanone], for which, in data set [1], the EC50 was more than 30000 nM and the “TGR5 agonistic activity (in words)” value is “no TGR5 agonistic activities”.
As for `O=C(c1cc2ccccc2n1Cc1ccc(Cl)cc1)N1CCN(C2CC2)c2ccccc21` [18b, (1-(4-Chlorobenzyl)-1H-indol-2-yl)(4-cyclopropyl-3,4-dihydroquinoxalin-1(2H)-yl)methanone], in data set [1], the EC50 was more than 30000 nM and the “TGR5 agonistic activity (in words)” value is “no TGR5 agonistic activities”.
Taken in the same sequence, the figures for `O=C(c1cc2sccc2n1Cc1ccc(Cl)cc1)N1CCN(C2CC2)c2ccccc21` [18c, (4-(4-Chlorobenzyl)-4H-thieno[3,2-b]pyrrol-5-yl)(4-cyclopropyl-3,4-dihydroquinoxalin-1(2H)-yl)methanone] were more than 30000 nM and “no TGR5 agonistic activities”.
As for `O=C(c1nccnc1Oc1ccc(Cl)cc1)N1CCN(C2CC2)c2ccccc21` [18d, (3-(4-Chlorophenoxy)pyrazin-2-yl)(4-cyclopropyl-3,4-dihydroquinoxalin-1(2H)-yl)methanone], the EC50 in data set [1] came out at 1500 nM.
On the same count and under the same terms, the figure for `O=C(c1nccnc1Oc1ccc(F)cc1)N1CCN(C2CC2)c2ccccc21` [18e, (4-Cyclopropyl-3,4-dihydroquinoxalin-1(2H)-yl)(3-(4-fluorophenoxy)pyrazin-2-yl)methanone] is 442 nM; for `O=C(c1nccnc1Oc1ccccc1F)N1CCN(C2CC2)c2ccccc21` [18f, (4-Cyclopropyl-3,4-dihydroquinoxalin-1(2H)-yl)(3-(2-fluorophenoxy)pyrazin-2-yl)methanone] it is 36.7 nM.
As for `O=C(c1nccnc1Oc1ccccc1Cl)N1CCN(C2CC2)c2ccccc21` [18g, (3-(2-Chlorophenoxy)pyrazin-2-yl)(4-cyclopropyl-3,4-dihydroquinoxalin-1(2H)-yl)methanone], the EC50 in data set [1] was 1.44 nM; in data set [2], 120 nM. The IC50 in data set [3] and in data set [4] was more than 50000 nM each time.
`COc1ccc(Oc2nccnc2C(=O)N2CCN(C3CC3)c3ccccc32)cc1` [18h, (4-Cyclopropyl-3,4-dihydroquinoxalin-1(2H)-yl)(3-(4-methoxyphenoxy)pyrazin-2-yl)methanone] gave an EC50 in data set [1] of 196 nM.
The same measure, in the same setting: to `Cc1ccc(Oc2nccnc2C(=O)N2CCN(C3CC3)c3ccccc32)cc1` [18i, (4-Cyclopropyl-3,4-dihydroquinoxalin-1(2H)-yl)(3-(p-tolyloxy)pyrazin-2-yl)methanone] belongs 83.2 nM.
Take `O=C(c1nccnc1Oc1ccc(Cl)cc1Cl)N1CCN(C2CC2)c2ccccc21` [18j, (4-Cyclopropyl-3,4-dihydroquinoxalin-1(2H)-yl)(3-(2,4-dichlorophenoxy)pyrazin-2-yl)methanone]: the EC50 in data set [1] is 9.89 nM; in data set [2], 538 nM. Besides, the IC50 in data set [3] and in data set [4] was more than 50000 nM throughout.
For `O=C(c1nccnc1Oc1cc(Cl)ccc1Cl)N1CCN(C2CC2)c2ccccc21` [18k, (4-Cyclopropyl-3,4-dihydroquinoxalin-1(2H)-yl)(3-(2,5-dichlorophenoxy)pyrazin-2-yl)methanone], the EC50 in data set [1] stood at 0.58 nM. Also, it took 267 nM to reach a half-maximal effect in data set [2] (EC50). For the same molecule, in data set [5], the half-life was more than 4.82 h, the share remaining at 0 h was found to be 100%, the amount remaining at 0.5 h was 104% and the fraction remaining at 1 h was found to be 102%. In data set [5], the amount remaining at 2 h is 85.4%. The IC50 in data set [3] was more than 50000 nM. Also, the IC50 in data set [4] was more than 50000 nM. For the same molecule, the “GLP-1 secretion compared to control” value in data set [6] is on record as “increase the secretion of GLP-1”. The “GLP-1 secretion compared to control” value in data set [7] is given as “increase GLP-1 secretion”.
In data set [1], `O=C(c1nccnc1Oc1ccc(-c2ccccc2)cc1)N1CCN(C2CC2)c2ccccc21` [18l, (3-([1,1′-Biphenyl]-4-yloxy)pyrazin-2-yl)(4-cyclopropyl-3,4-dihydroquinoxalin-1(2H)-yl)methanone] came in with an EC50 of 895 nM.
For the molecule `O=C(c1nccnc1Oc1cc(Cl)ccc1Cl)N1CCN(c2ccccc2F)CC1` [18o, (3-(2,5-Dichlorophenoxy)pyrazin-2-yl)(4-(2-fluorophenyl)piperazin-1-yl)methanone], the concentration giving a half-maximal response (EC50) in data set [1] is more than 10000 nM.
Same read-out and setting: to `CN(C(=O)c1nccnc1Oc1cc(Cl)ccc1Cl)c1ccc(F)cc1` [18r, 3-(2,5-Dichlorophenoxy)-N-(4-fluorophenyl)-N-methylpyrazine-2-carboxamide] belongs more than 10000 nM; to `O=C(c1nccnc1Oc1cc(Cl)ccc1Cl)N1CCOc2ccccc21` [18u, (3-(2,5-Dichlorophenoxy)pyrazin-2-yl)(2,3-dihydro-4H-benzo[b][1,4]oxazin-4-yl)methanone], more than 10000 nM.
